Patent US20110275667A1, “COMPOSITIONS USEFUL FOR TREATING GASTROESOPHAGEAL REFLUX DISEASE” (EDUSA Pharmaceuticals, Inc., priority 2007, published 2011)
Like-named read-outs stand apart in the source and are kept apart here.

Tests used:
healthy volunteers [1] = assay: Phase 1b crossover clinical trial: reflux events measured by multichannel intraluminal impedance and pH (MII-pH) after a refluxogenic meal; type: in vivo, human
Description: The clinical trial reported here was a Phase 1b, randomized, double-blind placebo-controlled, crossover study. In the Study, 28 healthy volunteers were administered doses of DDP733 (0.5, 0.8 and 1.4 mg) and placebo and then given a refluxogenic meal. For a period of two hours after completion of the refluxogenic meal, reflux events were measured using intraesophageal impedance.
Phase 1b, randomized, double-blinded, placebo controlled, crossover study.
Three Study Periods: Total Number of Visits=4 • (1) Ten-day screening period (2 visits); • (2) Two week treatment period (Days 1-14) (2 visits: Day 1 which is on the same day as the second screening visit, and Day 8); and • (3) One day end of study period (1 visit).
Subjects were randomized into a treatment group on Day 1 (the same day as visit 2 of the screening period). For the completed study, each subject was exposed to one of the dose levels of DDP733 (i.e., 0.5 mg, 0.8 mg and 1.4 mg) and to placebo in randomized sequence to complete approximately one week of dosing with each of the two dosing regimens (DDP733 and placebo). The six treatment sequences were:
For example, there were 7 subjects in the study who received the 0.5 mg dose of DDP733. At the commencement of dosing period 1, three subjects in the 0.5 mg group received placebo and 4 subjects received 0.5 mg of drug. […]
(§1) After randomization, subjects received a first dose of study medication (Day 1). The medication was administered under supervision and the subjects were then evaluated by manometry to assess LES position and pressure and by a multichannel intraluminal impedance and pH (MII-pH) procedures to measure the number of reflux events following ingestion of a refluxogenic meal (sausage and egg breakfast sandwich and 8 oz. cup of coffee). […]
• Primary: Reduction in esophageal reflux during a provocative procedure (following a refluxogenic meal) as measured by MII-pH; • Secondary: • (a) Change in reflux related symptoms (heartburn, regurgitation, acid taste) associated with ingestion of a refluxogenic meal; and • (b) Change in lower esophageal sphincter pressure. […]

Humans = conditions: cited from earlier work
healthy volunteers [2] = assay: Phase 1b clinical trial: safety and tolerability (vital signs, adverse events, clinical laboratory testing, ECGs); type: in vivo, human
From the text: Characterize the safety and tolerability of DDP733 in volunteers.
Safety measurements included monitoring of vital signs and adverse events, clinical laboratory testing and performance of electrocardiograms (ECGs).

healthy volunteers [3] = assay: Phase 1b clinical trial: lower esophageal sphincter pressure (LESP) by manometry; type: in vivo, human; conditions: 0.5 mg, 0.8 mg and 1.4 mg
Description: as §1, with “coffee). The supervised dose was the only dose administered on this initial day of testing (Day 1). Subjects continued dosing for a further five day, then had one day with no study medication before returning for the next visit on Day 8. The same procedure was performed on Day 8 of the treatment period (i.e., the first day of the second dosing period).” for “coffee).”
(§2) • Primary: Reduction in esophageal reflux during a provocative procedure (following a refluxogenic meal) as measured by MII-pH; • Secondary: • (a) Change in reflux related symptoms (heartburn, regurgitation, acid taste) associated with ingestion of a refluxogenic meal; and • (b) Change in lower esophageal sphincter pressure.

healthy volunteers [4] = assay: Phase 1b clinical trial: reflux related symptoms (heartburn, regurgitation, acid taste) associated with refluxogenic meal; type: in vivo, human; conditions: 0.5 mg, 0.8 mg and 1.4 mg
Description: In addition to assessment of the LESP and number of reflux events, subjects were also assessed on Days 1 and 8 to determine the frequency of the following symptoms: heartburn; regurgitation; and acid taste associated with the refluxogenic meal.
as §2

gastric acid = conditions: cited from earlier work

## O=C(N[C@H]1CN2CCC1CC2)c1c[nH]c2ccsc2c1=O [DDP733, (R)—N-1-azabicyclo[2.2.2]oct-3-yl-4,7-dihydro-7-oxothieno[3,2-b]pyridine-6-carboxamide]
Healthy volunteers [1]; 0.5 mg dose, p=0.0313, Wilcoxon signed-rank test
  statistical significance on primary clinical endpoint of reduction in the number of reflux events versus placebo: achieved statistical significance
Healthy volunteers [1]; 0.8 mg dose
  reduction in the number of reflux events versus placebo: did not show a statistically significant reduction
Healthy volunteers [1]; 1.4 mg dose
  reduction in the number of reflux events versus placebo: did not show a statistically significant reduction
Humans; 0.2 mg dose
  effect on increasing gastric emptying: no significant effect
  effect on the fundus: no significant effect
Humans; 1.0 mg dose
  effect on increasing gastric emptying: no significant effect
  effect on the fundus: no significant effect
Humans; 4.0 mg dose
  effect on gastric emptying: delays gastric emptying
  effect on the fundus: relaxes the fundus
Healthy volunteers [2]; all doses
  adverse events (AEs) leading to discontinuation: no adverse events (AEs) leading to discontinuation
  significant adverse events (SAEs): no significant adverse events (SAEs) reports
Healthy volunteers [2]; all doses (0.5, 0.8, 1.4 mg)
  safety and tolerability: safe and well tolerated
Healthy volunteers [2]; did not require medication
  time to resolution of drug related adverse events: 1 to 5 days
Healthy volunteers [2]; human, in vivo
  liver or cardiac abnormalities: No liver or cardiac abnormalities were observed
  severity of drug related adverse events (nausea, vomiting, pruritus, rash, rash macular, flush/hot flush, abdominal pain/discomfort): mild/moderate
Healthy volunteers [3]
  LESP versus placebo (secondary endpoint): no statistically significant differences
Healthy volunteers [4]
  reflux related symptoms versus placebo (secondary endpoint): no statistically significant differences
Gastric acid
  gastric acid suppressing activity: has gastric acid suppressing activity
